In one test the test system is M. luteus. In words: Kill or inhibit growth/proliferation; morphology, biofilm and growth disruption (Tables 5, 6). Further: test concentration or dose not given here. In kind it is cell-based, Micrococcus luteus. Also on record: key: A: Peptide aggregates; B: Less hyphal formation; Clumps; Diffuse clumps and small polyps; F: Diffuse growth; H: Thin; I: Growth inhibition; Microcolony formation; Rippled; Small polyps; Thick; W: Halo formation on top, microlonies on bottom.

Another test deals with MRSA. The description is as above. It counts as cell-based, Methicillin-resistant Staphylococcus aureus. Also on record: key: A: Peptide aggregates; B: Less hyphal formation; Clumps; Diffuse clumps and small polyps; F: Diffuse growth; H: Thin; I: Growth inhibition; Microcolony formation; Rippled; Small polyps; Thick; W: Halo formation on top, microlonies on bottom.
The next test relates to S. epidermidis. The description is as above. Details: key: A: Peptide aggregates; B: Less hyphal formation; Clumps; Diffuse clumps and small polyps; F: Diffuse growth; H: Thin; I: Growth inhibition; Microcolony formation; Rippled; Small polyps; Thick; W: Halo formation on top, microlonies on bottom. It counts as cell-based, Staphylococcus epidermidis.
For the next test, the system named is S. mutans. The test is described as above. In kind it is cell-based, Streptococcus mutans. Also on record: key: A: Peptide aggregates; B: Less hyphal formation; Clumps; Diffuse clumps and small polyps; F: Diffuse growth; H: Thin; I: Growth inhibition; Microcolony formation; Rippled; Small polyps; Thick; W: Halo formation on top, microlonies on bottom.
Another test relates to S. pneumoniae. The description is as above. It counts as cell-based, Streptococcus pneumoniae. Also on record: key: A: Peptide aggregates; B: Less hyphal formation; Clumps; Diffuse clumps and small polyps; F: Diffuse growth; H: Thin; I: Growth inhibition; Microcolony formation; Rippled; Small polyps; Thick; W: Halo formation on top, microlonies on bottom.
Test [1] deals with microorganisms (e.g., bacteria, yeasts, fungi). Kind of test: Targeting peptide binding to target microorganisms (Table 3). As to conditions: preferably 1x PBS; for Target(s): microorganism the targeting peptide binds, binding in aqueous buffers varied by peptide solubility; for Target(s) (microorganisms bound by the targeting peptide): peptide binding in aqueous buffers varied by peptide solubility.

The test system of another test is microorganisms. Kind of test: Peptides having multiple activities (targeting/binding, antimicrobial, growth or phenotype altering). The source says: In certain embodiments, peptides described herein can have multiple activities. Thus for example, a peptide can have both binding/targeting activity and antimicrobial activity. Such peptides can be used, e.g., in a chimeric construct, for any or all of these properties. Thus, for example, a peptide designated “B” in Table 8 can be used as a targeting peptide. If it is also designated G or M it can also be used for antimicrobial activity.

The subject of another test is E. coli. In words: Kill or inhibit growth/proliferation; morphology, biofilm and growth disruption (Tables 5, 6). Further: test concentration or dose not given here. It counts as cell-based, Escherichia coli. Also on record: key: A: Peptide aggregates; B: Less hyphal formation; Clumps; Diffuse clumps and small polyps; F: Diffuse growth; H: Thin; I: Growth inhibition; Microcolony formation; Rippled; Small polyps; Thick; W: Halo formation on top, microlonies on bottom.

“Also recorded” adds a separate entry of the source.
Wherever Organism, effect (morphology, biofilm and growth disruption) is given: test concentration or dose not given here.
Wherever Organism, effect is given: test concentration or dose not given here.

With “PF-051: peptide having multiple activities (chain 1 RFFNFEIKKSTKVDYVFAHVDLSDV; chain 2 RFFNFEIKKSTKVDYVFAHVDLSDV; Peptide with targeting and/or antimicrobial activity)”, the “Organism, effect” value is “M. luteus (C)” with M. luteus; “MRSA (D)” in the test with MRSA; “S. epidermidis (D)” with S. epidermidis; “S. mutans (D)” with S. mutans; “S. pneumoniae (D)” in the test on S. pneumoniae. Moreover, in test [1], the “Target(s)” value was “S. epidermidis and M. luteus and P. aeruginosa and C. albicans and MRSA and S. pneumoniae and E. faecalis”. In addition, the Activities result in the test on microorganisms was “G B”.
Turning to “PF-543: peptide having multiple activities (chain 1 NILFGIIGFVVAMTAAVIVTAISIAK; chain 2 NILFGIIGFVVAMTAAVIVTAISIAK; Peptide with targeting and/or antimicrobial activity)”, the “Organism, effect” value was “M. luteus (C)” with M. luteus; “MRSA (D)” in the test with MRSA; “S. epidermidis (D)” in the test with S. epidermidis; “S. mutans (S)” in the test on S. mutans; “S. pneumoniae (D)” in the test on S. pneumoniae; “E. coli (C)” in the test with E. coli. Besides, the Activities entry with microorganisms is given as “G B”.
For the substance “PF-C142: peptide having multiple activities (DFPPLSFFRRRFHAYTAPIDNFFGANPF; Peptide with targeting and/or antimicrobial activity)”, in the test on S. mutans, the “Organism, effect (morphology, biofilm and growth disruption)” value was “S. mutans (I)”. In addition, the “Target(s) (microorganisms bound by the targeting peptide)” value in test [1] was “A. naeslundii; also recorded: F. nucleatum; also recorded: P. gingivalis; also recorded: S. mutans; also recorded: T. denticola”. Also, the Activities result in the test on microorganisms is given as “G B”.
On to “PF-C057: peptide having multiple activities (YFWWYWVQDCIPYKNNEVWLELSNNMK; Peptide with targeting and/or antimicrobial activity)”, for which the “Organism, effect (morphology, biofilm and growth disruption)” value in the test with S. mutans is listed as “S. mutans (I)”. The “Target(s) (microorganisms bound by the targeting peptide)” value in test [1] is on record as “A. naeslundii; also recorded: F. nucleatum; also recorded: P. gingivalis; also recorded: S. mutans”. Moreover, the Activities result in the test on microorganisms is recorded as “G B”.
In the same order, the values of “PF-C139: peptide having multiple activities (LLASHPERLSLGVFFVYRVLHLLLENT; Peptide with targeting and/or antimicrobial activity)” are “S. mutans (F)”, “A. naeslundii; also recorded: F. nucleatum; also recorded: P. gingivalis; also recorded: S. mutans; also recorded: T. denticola” and “G B”.
With “PF-020: peptide having multiple activities (chain 1 MKIILLLFLIFGFIVVVTLKSEHQLTLFSI; chain 2 MKIILLLFLIFGFIVVVTLKSEHQLTLFSI; Peptide with targeting and/or antimicrobial activity)”, the “Organism, effect” value with M. luteus is given as “M. luteus (C)”; in the test on MRSA, “MRSA (C)”; in the test on S. epidermidis, “S. epidermidis (C)”; in the test with S. mutans, “S. mutans (F)”; with S. pneumoniae, “S. pneumoniae (D)”. In addition, the “Target(s)” value in test [1] is “S. epidermidis and M. luteus and C. albicans and MRSA and S. pneumoniae and E. faecalis”. Besides, in the test on microorganisms, the Activities result is given as “G B”.

Source of the values: patent publication US20110039762A1, “TARGETED ANTIMICROBIAL MOIETIES” (C3 JIAN, INC., priority 2009, published 2011).
